# Test results reported in patent publication US9238650B2, “Solid forms of a pyrido-pyrimidinium inner salt” (E. I. DU PONT DE NEMOURS AND COMPANY, priority 2012, dated 2016).
# Entries after “also recorded” stand apart in the source; their conditions may differ. Where a name gives a salt, the structure may show the parent alone.
# Assays:
# Type in all cases: physicochemical
# [1] = Solubility of Compound 1 in the test solvent, filtrate analyzed by HPLC; settings: 22° C., 5 days, label = starting polymorph form(s)
# Procedure: HPLC was used to determine the purity of Compound 1 and intermediates. An Agilent 1100/1200 series HPLC system with DAD/UV detector and reverse-phase column (Agilent Zorbax® SB C8 (4.6×150) mm, 3.5 μm, Part No. 863953-906) was used. Flow rate was 1 mL/min, run time 27 min, injection volume 3.0 μL, and the column oven temperature was 40° C. A mobile phase gradient according to Table 1 was used wherein mobile phase A was 0.03% by volume orthophosphoric acid and mobile Phase B was acetonitrile (HPLC grade). Mobile phase A was prepared by thoroughly mixing 0.3 mL of orthophosphoric acid (AR grade) with 999.7 mL of deionized water. Standard solutions were prepared by weighing 22.0±2.0 mg of the analytical standard in duplicate into separate 50-mL volumetric flasks, dissolving and diluting with the diluent. Samples were prepared by weighing 40.0±2.0 mg of the sample into a 100 mL standard volumetric flask, dissolving and diluting with the diluent. For analysis, the HPLC system and column were equilibrated with initial mobile phase. In the chromatographic sequence, blank samples, standard samples and test samples were run. The retention time for Compound 1 was about 22.2 min. Peaks appearing in the blank sample were not integrated, all other peaks were integrated and a % purity reported from the sample chromatogram. For wt % determination the concentration of test sample was calibrated against the standard sample.
# (§1) Polymorph Forms A and B of Compound 1 were subjected to non-competitive and competitive interconversion experiments. […] For the competitive experiments, polymorph Forms A and B were mixed together and studied for the potential conversion to the more thermodynamically stable form. The starting polymorph form(s) were mixed with various solvents for 5 days at 22° C., and then filtered. The filtrate was analyzed by HPLC to determine the solubility of Compound 1 in the test solvent. The solids were dried and analyzed by pXRD.
# [2] = Relative stability (non-competitive and competitive interconversion) of polymorph Forms A and B in various solvents at 22° C., solids analyzed by pXRD; settings: concluded from conversion of Form B to Form A in solvents at 22° C.
# Procedure: as §1
# A detailed description of the individual experiments for Examples 6a to 6j is given below.
# (§2) In Example 6a, Form B of Compound 1 (0.3 g) was mixed with acetone (5 g) at 22° C. for 5 days. The slurry was then filtered through a syringe filter (0.45 μm glass fiber, type Whatman GE Autovial) and dried in a vacuum oven at 40° C. for 48 hours. Analysis by pXRD indicated Form A of compound 1.
# as §2, with “6b,” for “6a,”, “B (0.3 g) and Form A (0.01 g)” for “B”, “were” for “(0.3 g) was”, “Compound” for “compound”
# In Example 6c, Form B (0.3 g) of Compound 1 was mixed with tetrahydrofuran (5 g) at 22° C. for 5 days. […]
# [3] = Temperature-dependent X-ray powder diffraction of polymorph Form A; settings: pure solid, heated from 25° C. to the melting point at 10° C. per minute
# Procedure: To assess the stability of polymorph Form A of Compound 1 with respect to temperature, X-ray powder diffraction patterns were obtained while heating a sample of Form A from 25° C. to above its melting point. The measurement was conducted at the 5-IDD beam line at the Advanced Photon Source synchrotron located at the Argonne National Laboratory (Argonne, Ill., USA). A Differential-Scanning calorimeter (DSC, Model DSC600, Linkam Scientific Instruments, Tadworth, U.K.) was mounted in vertical orientation to allow insertion of the DSC into the X-ray beam. The DSC was positioned in the beam line to accept a 100-200 μm square beam under high vacuum. The standard quartz window was replaced with polyimide film (Kapton®, 8 μm thickness, DuPont, Wilmington, Del., USA). An internal thermocouple was installed for temperature recording. A circular charged couple device (CCD) detector (Model Mar165, 165 mm diameter, Marresearch GmbH, Norderstedt, Germany) was used to detect the X-rays scattered from the sample. The detector was equipped with an aluminum cone that covered the detector and extended 100 mm from the face of the detector. This cone was quipped with a beam stop support and 5×3 mm lead beam stop. The cone was continuously purged with helium to minimize air scattering. […]
# [4] = Solid-liquid separation efficiency: time to complete filtration on a lab nutsche filter; settings: for Filtration time: time required to complete filtration of 90 g from reaction mass
# Procedure: In separate experiments, about 90 grams of Polymorph Forms A and B of Compound 1 were prepared according to PREPARATION EXAMPLE 1 and 2, respectively. The solids were filtered from their reaction mass using a lab nutsche filter. The times to complete the filtrations (indicated by no further liquid dripping from the filter) were measured and are reported in Table 12.
# [5] = Particle size distribution by laser diffraction particle size analyzer after dispersion in deionized water; settings: dispersed in deionized water; for D50: median particle size; for D[4, 3]: volume-weighted mean particle size
# Procedure: After the observation of increased settling velocity of Polymorph Form A compared to Form B (see CHARACTERIZATION EXAMPLE 9), the particle size distributions of the two forms were measured. Form B of Compound 1 was prepared according to PREPARATION EXAMPLE 2. Some of the Form B thus prepared was converted to Form A according to PREPARATION EXAMPLE 5. The particle size distribution of both Form A and B samples were determined after dispersion in deionized water using a laser diffraction particle size analyzer (model Mastersizer 2000 by Malvern Instruments, Malvern, UK). The particle size distribution parameters D10, D50 and D90 are reported in Table 13 below, wherein D50 represents the median particle size of the distribution, i.e. 50% of the particles are smaller and 50% are larger than that size. D10 indicates the particle size at which 10% of all particles are smaller than that size. Similarly, D90 indicates the particle size at which 90% of all particles are smaller than that size. The volume-weighted mean particle sizes D[4,3] are also reported.
# [6] = Crystal density by helium gas pygnometry
# Description: However, once Form B has converted to Form A in the slurry, the particles start to settle to the bottom of the flask rapidly after stirring is turned off indicating increased particle size of the Form A crystals. […] High particle size and settling velocities are important process advantages for solid-liquid separation operations in commercial manufacturing. Large average particle size improve filtration and centrifugation steps by increased filtration speeds, higher throughputs, lower propensity to filter cake cracking and resulting filtrate by-passing, increased cake wash efficiency and increased product purity.
smiles,measurement,setting,value
"Cc1cccn2c(=O)c(-c3cc(Cl)cc(Cl)c3)c([O-])[n+](Cc3cnc(Cl)s3)c12 [B + seed A, 1-[(2-chloro-5-thiazolyl)methyl]-3-(3,5-dichlorophenyl)-2-hydroxy-9-methyl-4-oxo-4H-pyrido[1,2-a]pyrimidinium inner salt]",Concentration of Compound 1 in filtrate,[1]; acetone,0.34 wt %
same,Concentration of Compound 1 in filtrate,[1]; ethyl acetate,0.09 wt %
same,Concentration of Compound 1 in filtrate,[1]; tetrahydrofuran,1.01 wt %
same,Concentration of Compound 1 in filtrate,[1]; toluene,0.023 wt %
same,Concentration of Compound 1 in filtrate,[1]; water,<0.01 wt %
"Cc1cccn2c(=O)c(-c3cc(Cl)cc(Cl)c3)c([O-])[n+](Cc3cnc(Cl)s3)c12 [Form A, 1-[(2-chloro-5-thiazolyl)methyl]-3-(3,5-dichlorophenyl)-2-hydroxy-9-methyl-4-oxo-4H-pyrido[1,2-a]pyrimidinium inner salt]",Relative thermodynamic stability,[2],more thermodynamically stable than Form B
same,Stability of the crystal form with respect to temperature (pXRD while heating),[3],no crystal form conversion to another polymorph occurred; also recorded: physically and chemically stable in its pure solid form
same,Filtration time,[4],0.9 min
same,D10,[5],13 μm
same,D90,[5],73 μm
same,D50,[5],34 μm
same,"D[4, 3]",[5],39 μm
same,density,[6],1.597 g/mL
"Cc1cccn2c(=O)c(-c3cc(Cl)cc(Cl)c3)c([O-])[n+](Cc3cnc(Cl)s3)c12 [Form B, 1-[(2-chloro-5-thiazolyl)methyl]-3-(3,5-dichlorophenyl)-2-hydroxy-9-methyl-4-oxo-4H-pyrido[1,2-a]pyrimidinium inner salt]",Concentration of Compound 1 in filtrate,[1]; acetone,0.34 wt %
same,Concentration of Compound 1 in filtrate,[1]; ethyl acetate,0.18 wt %
same,Concentration of Compound 1 in filtrate,[1]; tetrahydrofuran,1.03 wt %
same,Concentration of Compound 1 in filtrate,[1]; toluene,0.049 wt %
same,Concentration of Compound 1 in filtrate,[1]; water,<0.01 wt %
same,Filtration time relative to Polymorph Form A,[4]; about 90 grams,more than 3 times
same,Filtration time,[4],3.0 min
same,D10,[5],0.6 μm
same,D90,[5],19 μm
same,D50,[5],3.2 μm
same,"D[4, 3]",[5],6.8 μm
same,density,[6],1.582 g/mL
